{
  "source": "patent US8993606B2",
  "about": "“Oral formulations for treating metal overload” (FerroKin BioSciences, Inc., priority 2011, dated 2015)",
  "key": {"iron": {"tested_on": "iron", "assay": "Pharmacodynamics: iron in 24-hour urine", "assay_type": "in vivo, human", "procedure": "Urine was collected for 24 hours following administration of Compound 1. […] In other studies, a more sensitive urinary iron assay was employed (LLOQ 10 μg/dL)."}, "iron overloaded subjects": {"tested_on": "iron overloaded subjects", "assay": "Safety: single-dose Phase 1 study in iron-overloaded subjects", "assay_type": "in vivo", "procedure": "The objectives of this study were to assess the safety, tolerability, and pharmacokinetics of ascending single doses of Compound 1. Additionally, dose proportionality and pharmacodynamics of Compound 1 were assessed. Four doses of Compound 1 (6, 10, 16, and 32 mg/kg), in capsule form, were evaluated in this study. Each dose level was tested in a single subject, with appropriate evaluation of safety done prior to escalating the dose. Following screening, the first subject was dosed and then confined to the clinical research unit for 24 hours to conduct safety and pharmacokinetic assessments. The subject was released from the clinic on Day 2 and returned daily for follow-up visits for 5 days post-dosing. This process was followed for each dose level.\nFour iron overloaded subjects were enrolled and completed the study. Each subject received a single oral dose of Compound 1. Doses were 6, 10, 16 and 32 mg/kg. […] Three TEAEs were reported for a single subject who received 32 mg/kg of Compound 1. All 3 TEAEs occurred at the site of venipuncture used for blood sampling: bruising at cannula site on the left arm and bruising at 2 venipuncture sites on the left arm and then the right arm."}, "[1]": {"assay": "Example 4: seven-day dosing in iron-overloaded human subjects (PK, tolerability)", "assay_type": "in vivo", "settings": "for CL renal / half-life / Cmax / Tmax / AUC(0-t) / Vd/F: human; for CL renal: plasma and urine; for half-life / Cmax / Tmax / AUC(0-t) / Vd/F: plasma; for AUC(0-t): read-out: AUC(0-24); for Vd/F: read-out: Vz/F", "procedure": "A dose-escalation study to assess the safety, tolerability, pharmacokinetics and pharmacodynamics of Compound 1, which correspond to a capsule formulation of (S)-3′-(OH)-DADFT-PE was conducted in 16 adult patients with iron overloaded consequent to transfusions. […] Compound 1 was supplied as capsules containing 50 mg, 100 mg, or 250 mg. The capsules were manufactured in accordance with Annex 13 and the principle of cGMP at Aptuit (10245 Hickman Mills Drive, Kansas City, Mo. 64137).\nPatients 18 years or older with documented transfusional iron overload requiring chronic treatment with deferiprone, deferasirox or deferoxamine were eligible. Causes of iron overload included β-thalassemia major, α-thalassemia or α-thalassemia hydrops)(α°α°, sickle cell disease, and congenital dyserythropoietic anemia. Each of the four cohorts contained four patients. For the purposes of this study, transfusion dependence was defined as requiring eight or more transfusions per year. The iron burden inclusion criteria were defined as: (i) liver iron concentration greater than 2 mg/g (dry weight, liver) as determined by R2 magnetic resonance imaging; (ii) a cardiac magnetic resonance imaging T2* greater than 12 ms; and (iii) serum ferritin in excess of 600 ng/mL. Eligible patients who consented to participation in the study discontinued their regular chelation therapy for up to 5 days during a wash-out period prior to their first dose of Compound 1. Patients received Compound 1 in capsules taken orally in a fasted state.\nIn this study, a standard pharmacokinetic protocol of plasma sampling was performed throughout the 7 days of dosing and continuing for 3 days after the last dose on day 7. Actual blood sampling and urine collection times were used in all pharmacokinetic analyses. […] A formally validated bioanalytical method for quantifying total Compound 1 in human plasma and urine was developed. The drug was extracted from plasma using solid phase extraction and analyzed using high performance liquid chromatography with tandem mass spectrometric determination, and d3-[Compound 1] as an internal standard. The method was used to measure drug (MW 400) over the range of 5 to 2000 ng/mL (12.5-5000 nM) and at sample dilutions of 20- to 50-fold.\nPharmacokinetic parameters for Compound 1 were estimated using non-compartmental analysis. Only plasma and urine concentrations greater than the lower limits of quantitation (LOQ, 5 ng/mL in plasma, 5 ng/mL in urine) for the assays were used in the pharmacokinetic analysis.\nPlasma concentrations, blood sampling times, urine concentrations, urine volumes, and the amount excreted in each interval, and pharmacokinetic parameters were listed by dose group and patient. Plasma concentrations and pharmacokinetic parameters were summarized by dose group using descriptive statistics: linearity with respect to Cmax and AUC(0-24) was assessed using the power model, i.e. P=a×Doseb, where P represents the parameter and a and b are constants. A log-log plot of P versus Dose is linear and a value of b of ≈1 indicates linearity. The equation was fitted to the individual patients' data using non-linear least squares regression. Parameters were compared among doses using descriptive statistics. Due to the small numbers of patients per panel, no formal statistical analyses were done."}},
  "note": "Read-outs that look alike come from different tables or passages of the source.",
  "data": [
    {"smiles": "COCCOCCOCCOc1cccc(C2=N[C@@](C)(C(=O)O)CS2)c1O", "note": "[Compound 1, (S)-4,5-Dihydro-2-[2-hydroxy-3-(3,6,9-trioxadecyloxy)phenyl]-4-methyl-4-thiazolecarboxylate magnesium hydroxide]", "values": [
      {"measurement": "iron in 24 hour urine", "setting": "iron; all doses, LLOQ of iron approximately 195 μg/dL", "result": "no detectable iron"},
      {"measurement": "iron in urine, more sensitive assay", "setting": "iron; other studies, LLOQ 10 μg/dL, no dose-dependent trends", "result": "Iron was detected in the urine of all subjects"},
      {"measurement": "tolerability", "setting": "iron overloaded subjects; single oral dose 6, 10, 16, 32 mg/kg", "result": "well tolerated"},
      {"measurement": "clinical laboratory assessments, vital sign measurements, ECG parameters", "setting": "iron overloaded subjects; single oral dose 6-32 mg/kg", "result": "no clinically significant changes"},
      {"measurement": "deaths, SAEs, withdrawals due to AEs", "setting": "iron overloaded subjects; single oral dose 6-32 mg/kg", "result": "no deaths, no serious adverse events (SAEs), and no withdrawals due to AEs"},
      {"measurement": "TEAEs reported", "setting": "iron overloaded subjects; single subject who received 32 mg/kg, all at site of venipuncture", "result": "Three"},
      {"measurement": "CL/F", "setting": "[1]; 3 mg/kg daily 7 days oral", "result": "162 ± 85", "unit": "mL/min"},
      {"measurement": "CL/F", "setting": "[1]; 8 mg/kg daily 7 days oral", "result": "225 ± 142", "unit": "mL/min"},
      {"measurement": "CL/F", "setting": "[1]; 16 mg/kg daily 7 days oral", "result": "206 ± 78.4", "unit": "mL/min"},
      {"measurement": "CL/F", "setting": "[1]; 32 mg/kg daily 7 days oral", "result": "172 ± 60.1", "unit": "mL/min"},
      {"measurement": "serious adverse events associated with the drug", "setting": "[1]; 3-32 mg/kg daily 7 days", "result": "no serious adverse events"},
      {"measurement": "dose proportionality of plasma concentrations", "setting": "[1]; all four doses 3-32 mg/kg", "result": "dose-proportional, linear pharmacokinetics"},
      {"measurement": "tolerability", "setting": "[1]; daily for 7 days at doses up to 32 mg/kg", "result": "well tolerated at all dose levels"},
      {"measurement": "CL renal", "setting": "[1]; 3 mg/kg daily 7 days oral", "result": "75.2 ± 46.8", "unit": "mL/min"},
      {"measurement": "CL renal", "setting": "[1]; 8 mg/kg daily 7 days oral", "result": "105 ± 62.9", "unit": "mL/min"},
      {"measurement": "CL renal", "setting": "[1]; 16 mg/kg daily 7 days oral", "result": "83.2 ± 36.5", "unit": "mL/min"},
      {"measurement": "CL renal", "setting": "[1]; 32 mg/kg daily 7 days oral", "result": "73.6 ± 37.8", "unit": "mL/min"},
      {"measurement": "half-life", "setting": "[1]; oral, 40 mg/kg, 5th cohort of four patients, read-out: Mean half life (t½) (converted)", "result": 26.6, "unit": "h"},
      {"measurement": "half-life", "setting": "[1]; oral, across doses 3-32 mg/kg, read-out: t½ (converted)", "result": 19.2, "unit": "h"},
      {"measurement": "Cmax", "setting": "[1]; 3 mg/kg daily 7 days oral", "result": "5910 ± 2300", "unit": "ng/mL"},
      {"measurement": "Tmax", "setting": "[1]; 3 mg/kg daily 7 days oral", "result": 1.31, "unit": "h"},
      {"measurement": "AUC(0-t)", "setting": "[1]; 3 mg/kg daily 7 days oral", "result": "19500 ± 11300", "unit": "ng·h/mL"},
      {"measurement": "Vd/F", "setting": "[1]; 3 mg/kg daily 7 days oral", "result": "185 ± 84.1", "unit": "L"},
      {"measurement": "half-life", "setting": "[1]; 3 mg/kg daily 7 days oral, read-out: t½ (converted)", "result": "16.2 ± 8.32", "unit": "h"},
      {"measurement": "Cmax", "setting": "[1]; 8 mg/kg daily 7 days oral", "result": "15000 ± 4440", "unit": "ng/mL"},
      {"measurement": "Tmax", "setting": "[1]; 8 mg/kg daily 7 days oral", "result": 1.18, "unit": "h"},
      {"measurement": "AUC(0-t)", "setting": "[1]; 8 mg/kg daily 7 days oral", "result": "44900 ± 30800", "unit": "ng·h/mL"},
      {"measurement": "Vd/F", "setting": "[1]; 8 mg/kg daily 7 days oral", "result": "311 ± 137", "unit": "L"},
      {"measurement": "half-life", "setting": "[1]; 8 mg/kg daily 7 days oral, read-out: t½ (converted)", "result": "20.9 ± 11.3", "unit": "h"},
      {"measurement": "Cmax", "setting": "[1]; 16 mg/kg daily 7 days oral", "result": 38200, "unit": "ng/mL"},
      {"measurement": "Tmax", "setting": "[1]; 16 mg/kg daily 7 days oral", "result": 1, "unit": "h"},
      {"measurement": "AUC(0-t)", "setting": "[1]; 16 mg/kg daily 7 days oral", "result": "92300 ± 36600", "unit": "ng·h/mL"},
      {"measurement": "Vd/F", "setting": "[1]; 16 mg/kg daily 7 days oral", "result": "339 ± 166", "unit": "L"},
      {"measurement": "half-life", "setting": "[1]; 16 mg/kg daily 7 days oral, read-out: t½ (converted)", "result": "21.3 ± 11.8", "unit": "h"},
      {"measurement": "Cmax", "setting": "[1]; 32 mg/kg daily 7 days oral", "result": "60200 ± 27500", "unit": "ng/mL"},
      {"measurement": "Tmax", "setting": "[1]; 32 mg/kg daily 7 days oral", "result": 1.49, "unit": "h"},
      {"measurement": "AUC(0-t)", "setting": "[1]; 32 mg/kg daily 7 days oral", "result": "158000 ± 43500", "unit": "ng·h/mL"},
      {"measurement": "Vd/F", "setting": "[1]; 32 mg/kg daily 7 days oral", "result": "214 ± 2.94", "unit": "L"},
      {"measurement": "half-life", "setting": "[1]; 32 mg/kg daily 7 days oral, read-out: t½ (converted)", "result": "18.7 ± 4.48", "unit": "h"}
    ]}
  ]
}
